The test system of test [1] is chymotrypsin-like activity of the 20S proteasome in RPMI 8226 cells. The test can be described thus: Chymotrypsin-like activity of proteasomes in RPMI 8226 cells after 1 hr exposure, measured in cell lysates (Suc-LLVY-AMC). In kind it is cell-based, human. The following applies: for % inhibition of the 20S proteasome chymotrypsin-like activity in RPMI 8826 cells: 1 hr incubation. On the procedure:
RPMI 8226 (ATCC, CCL-155), the human multiple myeloma cell line, was cultured in RPMI 1640 medium supplemented with 2 mM L-Glutamine, 1% Penicillin/Streptomycin, 10 mM HEPES and 10% Fetal Bovine Serum at 37° C., 5% CO2 and 95% humidified air. To evaluate the inhibitory effects on the chymotrypsin-like activity of the 20S proteasome, test compounds prepared in DMSO were appropriately diluted in culture medium and added to 1×10^6/ml RMPI 8226 cells at final concentration of 1, 5 or 10 nM. DMSO was used as the vehicle control at a final concentration of 0.1%. Following 1 hr incubation of RMPI 8226 cells with the compounds, the cells were pelleted by centrifugation at 2,000 rpm for 10 sec at room temperature and washed 3× with ice-cold 1× Dubach's Phosphate-Buffered Saline (DPBS, Mediatech, Herndon, Va.). DPBS washed cells were lysed on ice for 15 min in lysis buffer (20 mM HEPES, 0.5 mM EDTA, 0.05% Triton X-100, pH 7.3) supplemented with protease inhibitor cocktail (Roche Diagnostics, Indianapolis, Ind.). Cell debris was pelleted by centrifugation at 14,000 rpm for 10 min, 4° C. and supernatants (=cell lysates) were transferred to a new tube. Protein concentration was determined by the BCA protein assay kit (Pierce Biotechnology, Rockford, Ill.). […] The reactions were initiated by the addition of 10 μL of 0.4 mM Suc-LLVY-AMC (prepared by diluting a 10 mM solution of the peptide in DMSO 1:25 with assay buffer) to 190 μL of the cell lysates in 96-well Costar microtiter plate and incubated in the Thermo Lab Systems Fluoroskan plate reader at 37° C. Fluorescence of the cleaved peptide substrate was measured at λex=390 nm and λem=460 nm. All data were collected every five minutes for 2 hour. The total protein used for each assay was 20 μg. The final concentration of Suc-LLVY-AMC and DMSO was 20 μM and 0.2%, respectively. After subtraction of the background (the values from wells containing buffer and substrate in the absence of cell lysate), the activity of test compound was expressed as % inhibition as normalized to the proteasome activity observed in the DMSO treated control cells.

The target in test [2] is caspase-like activity of purified rabbit 20S proteasomes (Oryctolagus cuniculus, UniProt G1T235). Kind of test: In vitro inhibition of caspase-like activity of purified rabbit muscle 20S proteasome (Z-LLE-AMC). The following applies: IC50 Values, purified rabbit 20S proteasome. The test is classed as biochemical.

As to `C[C@@]12OC(=O)[C@]1([C@@H](O)[C@@H]1C=CCCC1)NC(=O)[C@@H]2CCCl` [XVI-1A, Salinosporamide A], the “% inhibition of the 20S proteasome chymotrypsin-like activity in RPMI 8826 cells” value came to 38% in test [1] (fermentation XVI-1A, 1 nM); 86% in test [1] (fermentation XVI-1A, 5 nM); 97% in test [1] (fermentation XVI-1A, 10 nM); 32% in test [1] (synthetic XVI-1A, 1 nM); 79% in test [1] (synthetic XVI-1A, 5 nM); 96% in test [1] (synthetic XVI-1A, 10 nM). In addition, in test [1] (fermentation or synthetic XVI-1A, 1, 5 or 10 nM), the “inhibition of the 20S proteasome chymotrypsin-like activity on exposure of RPMI 8226 cells” value is listed as “dose-dependent inhibition”. In addition, the IC50 in test [2] (XVI-1A obtained by fermentation) came to 387 nM; in test [2] (XVI-1A obtained synthetically), 467 nM.

The values above are taken from US8067616B2 (Nereus Pharmaceuticals, Inc., priority 2006, dated 2011).
